Measured values from PubChem BioAssay AID248 (DTP/NCI, 2004).
“And” between values parts separate entries of the source, which are not always exact repeats. Equal values may be shown once. Toxic doses and inconclusive results are not listed.

System: L1210 leukemia ip in BDF1 mice, survival T/C
Test: NCI In Vivo Anticancer Drug Screen. Data for tumor model L1210 Leukemia (intraperitoneal) in B6D2F1 (BDF1) mice
Conditions: endpoint: mean survival time, higher = longer survival
Outline: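 Survival endpoint. Drug-treated group vs vehicle group, expressed as T divided by C. Tumor passaged by transplantation.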

[1] = dose: 25.0 mg/kg/injection, schedule: Q04DX003 (ip), vehicle: saline
[2] = dose: 50.0 mg/kg/injection, schedule: Q04DX003 (ip), vehicle: saline
[3] = dose: 100.0 mg/kg/injection, schedule: Q01DX001 (ip), vehicle: carboxymethylcellulose (CMC)
[4] = dose: 100.0 mg/kg/injection, schedule: Q04DX003 (ip), vehicle: saline
[5] = dose: 200.0 mg/kg/injection, schedule: Q01DX001 (ip), vehicle: carboxymethylcellulose (CMC)
[6] = dose: 200.0 mg/kg/injection, schedule: Q04DX003 (ip), vehicle: saline
[7] = dose: 400.0 mg/kg/injection, schedule: Q01DX001 (ip), vehicle: carboxymethylcellulose (CMC)
[8] = dose: 100.0 mg/kg/injection, schedule: Q04DX003 (ip), vehicle: saline with Tween-80
[9] = dose: 200.0 mg/kg/injection, schedule: Q04DX003 (ip), vehicle: saline with Tween-80
[10] = dose: 400.0 mg/kg/injection, schedule: Q04DX003 (ip), vehicle: saline with Tween-80
[11] = dose: 100.0 mg/kg/injection, schedule: Q01DX001 (ip), vehicle: saline with Tween-80
[12] = dose: 200.0 mg/kg/injection, schedule: Q01DX001 (ip), vehicle: saline with Tween-80
[13] = dose: 400.0 mg/kg/injection, schedule: Q01DX001 (ip), vehicle: saline with Tween-80
[14] = dose: 100.0 mg/kg/injection, schedule: Q01DX009 (ip), vehicle: saline with Tween-80
[15] = dose: 200.0 mg/kg/injection, schedule: Q01DX009 (ip), vehicle: saline with Tween-80
[16] = dose: 400.0 mg/kg/injection, schedule: Q01DX009 (ip), vehicle: saline with Tween-80

## CN1CCN(CCC=C2c3ccccc3Sc3ccc(S(=O)(=O)N(C)C)cc32)CC1
dose: 0.39 mg/kg/injection, schedule: Q01DX009 (ip), vehicle: saline
  T/C: 114 % of control
dose: 0.78 mg/kg/injection, schedule: Q01DX009 (ip), vehicle: saline
  T/C: 101 % of control
dose: 1.56 mg/kg/injection, schedule: Q01DX009 (ip), vehicle: saline
  T/C: 121 % of control
dose: 3.12 mg/kg/injection, schedule: Q01DX009 (ip), vehicle: saline
  T/C: 114 % of control
dose: 6.25 mg/kg/injection, schedule: Q01DX009 (ip), vehicle: saline
  T/C: 114 % of control
dose: 12.5 mg/kg/injection, schedule: Q01DX009 (ip), vehicle: saline
  T/C: 102 % of control
[1]
  T/C: 95 % of control
[2]
  T/C: 95 % of control
[3]
  T/C: 121 % of control
[4]
  T/C: 122 % of control
[5]
  T/C: 103 % of control
[6]
  T/C: 104 % of control
[7]
  T/C: 118 % of control

## CCCC(=O)NC1=C(N2CC2)C(=O)C(NC(=O)CCC)=C(N2CC2)C1=O
dose: 0.13 mg/kg/injection, schedule: Q01DX010 (oral), vehicle: saline
  T/C: 104 % of control
dose: 0.25 mg/kg/injection, schedule: Q01DX010 (oral), vehicle: saline
  T/C: 110 % of control
dose: 0.5 mg/kg/injection, schedule: Q01DX010 (oral), vehicle: saline
  T/C: 116 % of control
dose: 1.0 mg/kg/injection, schedule: Q01DX010 (oral), vehicle: saline
  T/C: 116 % of control
dose: 1.0 mg/kg/injection, schedule: Q01DX Z (ip), vehicle: saline
  T/C: 124 % of control
dose: 2.0 mg/kg/injection, schedule: Q01DX Z (ip), vehicle: saline
  T/C: 166 % of control and 193 % of control
dose: 4.0 mg/kg/injection, schedule: Q01DX010 (oral), vehicle: saline
  T/C: 154 % of control
dose: 8.0 mg/kg/injection, schedule: Q01DX Z (ip), vehicle: saline
  T/C: 100 % of control

## Cc1cc(N=Nc2ccccc2)c2cccnc2c1N
dose: 50.0 mg/kg/injection, schedule: Q04DX003 (ip), vehicle: DMSO
  T/C: 91 % of control
dose: 100.0 mg/kg/injection, schedule: Q04DX003 (ip), vehicle: DMSO
  T/C: 97 % of control

## CN(N=O)C(=O)Nc1c[nH]c(=O)[nH]c1=O
dose: 10.0 mg/kg/injection, schedule: Q01DX Z (ip), vehicle: carboxymethylcellulose (CMC)
  T/C: 172 % of control
dose: 20.0 mg/kg/injection, schedule: Q01DX Z (ip), vehicle: carboxymethylcellulose (CMC)
  T/C: 207 % of control
dose: 27.0 mg/kg/injection, schedule: Q01DX Z (ip), vehicle: saline
  T/C: 151 % of control
dose: 40.0 mg/kg/injection, schedule: Q01DX Z (ip), vehicle: carboxymethylcellulose (CMC)
  T/C: 239 % of control
dose: 40.5 mg/kg/injection, schedule: Q01DX Z (ip), vehicle: saline
  T/C: 159 % of control
dose: 50.0 mg/kg/injection, schedule: Q01DX Z (ip), vehicle: carboxymethylcellulose (CMC)
  T/C: 165 % of control and 206 % of control
dose: 60.0 mg/kg/injection, schedule: Q01DX Z (ip), vehicle: carboxymethylcellulose (CMC)
  T/C: 183 % of control
dose: 60.7 mg/kg/injection, schedule: Q01DX Z (ip), vehicle: saline
  T/C: 162 % of control
dose: 80.0 mg/kg/injection, schedule: Q01DX Z (ip), vehicle: carboxymethylcellulose (CMC)
  T/C: 101 % of control
dose: 91.1 mg/kg/injection, schedule: Q01DX Z (ip), vehicle: saline
  T/C: 98 % of control
dose: 240.0 mg/kg/injection, schedule: Q01DX001 (ip), vehicle: saline
  T/C: 185 % of control
dose: 480.0 mg/kg/injection, schedule: Q01DX001 (ip), vehicle: saline
  T/C: 188 % of control
dose: 960.0 mg/kg/injection, schedule: Q01DX001 (ip), vehicle: saline
  T/C: 173 % of control

## C(=C1/CCCc2ccccc21)/c1ccccn1
dose: 100.0 mg/kg/injection, schedule: Q01DX001 (ip), vehicle: other
  T/C: 98 % of control
dose: 200.0 mg/kg/injection, schedule: Q01DX001 (ip), vehicle: other
  T/C: 103 % of control
dose: 400.0 mg/kg/injection, schedule: Q01DX001 (ip), vehicle: other
  T/C: 90 % of control

## NC(CSS(=O)(=O)O)=NCCc1ccccc1
dose: 3.13 mg/kg/injection, schedule: Q04DX002 (ip), vehicle: Klucel (hydroxypropylcellulose) (HPC)
  T/C: 103 % of control
dose: 6.25 mg/kg/injection, schedule: Q04DX002 (ip), vehicle: Klucel (hydroxypropylcellulose) (HPC)
  T/C: 100 % of control
dose: 12.5 mg/kg/injection, schedule: Q04DX002 (ip), vehicle: Klucel (hydroxypropylcellulose) (HPC)
  T/C: 100 % of control

## NC(C(=O)O)c1ccccc1C(=O)O (stereo not given)
[8]
  T/C: 96 % of control
[9]
  T/C: 103 % of control
[10]
  T/C: 103 % of control

## Nc1ccc(N=Nc2ccc(O)cc2)c(N)n1
dose: 100.0 mg/kg/injection, schedule: Q01DX001 (ip), vehicle: saline
  T/C: 92 % of control
dose: 200.0 mg/kg/injection, schedule: Q01DX001 (ip), vehicle: saline
  T/C: 107 % of control

## CNCCC(CNC1=NCCN1)(c1cccc2ccccc12)C(C)C (stereo not given)
dose: 100.0 mg/kg/injection, schedule: Q04DX003 (ip), vehicle: Klucel (hydroxypropylcellulose) (HPC)
  T/C: 94 % of control

## Cn1ncc2c(N)ncnc21
dose: 6.0 mg/kg/injection, schedule: Q01DX015 (ip), vehicle: carboxymethylcellulose (CMC)
  T/C: 108 % of control
dose: 12.0 mg/kg/injection, schedule: Q01DX015 (ip), vehicle: carboxymethylcellulose (CMC)
  T/C: 101 % of control
dose: 12.5 mg/kg/injection, schedule: Q01DX009 (ip), vehicle: Klucel (hydroxypropylcellulose) (HPC)
  T/C: 102 % of control
dose: 25.0 mg/kg/injection, schedule: Q01DX009 (ip), vehicle: Klucel (hydroxypropylcellulose) (HPC)
  T/C: 107 % of control
dose: 25.0 mg/kg/injection, schedule: Q01DX015 (ip), vehicle: carboxymethylcellulose (CMC)
  T/C: 108 % of control
dose: 50.0 mg/kg/injection, schedule: Q01DX009 (ip), vehicle: Klucel (hydroxypropylcellulose) (HPC)
  T/C: 91 % of control
dose: 50.0 mg/kg/injection, schedule: Q01DX015 (ip), vehicle: carboxymethylcellulose (CMC)
  T/C: 101 % of control
[3]
  T/C: 103 % of control
[5]
  T/C: 98 % of control
[7]
  T/C: 106 % of control

## CC(=O)NC1C(OCc2ccccc2)OC(COCc2ccccc2)C(OCc2ccccc2)C1OCc1ccccc1 (stereo not given)
[11]
  T/C: 86 % of control
[12]
  T/C: 94 % of control
[13]
  T/C: 94 % of control

## OC/C(I)=C(I)\C(I)=C(\I)CO
dose: 25.0 mg/kg/injection, schedule: Q04DX002 (ip), vehicle: Klucel (hydroxypropylcellulose) (HPC)
  T/C: 90 % of control
dose: 50.0 mg/kg/injection, schedule: Q04DX002 (ip), vehicle: Klucel (hydroxypropylcellulose) (HPC)
  T/C: 90 % of control
dose: 100.0 mg/kg/injection, schedule: Q04DX002 (ip), vehicle: Klucel (hydroxypropylcellulose) (HPC)
  T/C: 94 % of control and 101 % of control

## Nc1nc(Nc2cccc(Cl)c2)cc(=O)[nH]1
dose: 100.0 mg/kg/injection, schedule: Q01DX Z (ip), vehicle: methylcellulose (MC)
  T/C: 90 % of control
dose: 200.0 mg/kg/injection, schedule: Q01DX Z (ip), vehicle: methylcellulose (MC)
  T/C: 99 % of control

## COc1ccc(OC)c(/C=N/NC(=O)CCCCCCCCC(=O)N/N=C/c2cc(OC)ccc2OC)c1
[11]
  T/C: 90 % of control
[14]
  T/C: 101 % of control and 106 % of control
dose: 100.0 mg/kg/injection, schedule: Q04DX002 (ip), vehicle: saline with Tween-80
  T/C: 94 % of control and 108 % of control
[4]
  T/C: 92 % of control
[12]
  T/C: 92 % of control
[15]
  T/C: 97 % of control and 90 % of control
dose: 200.0 mg/kg/injection, schedule: Q04DX002 (ip), vehicle: saline with Tween-80
  T/C: 95 % of control and 90 % of control
[6]
  T/C: 92 % of control
[13]
  T/C: 87 % of control
[16]
  T/C: 94 % of control
dose: 400.0 mg/kg/injection, schedule: Q04DX002 (ip), vehicle: saline with Tween-80
  T/C: 86 % of control
dose: 400.0 mg/kg/injection, schedule: Q04DX003 (ip), vehicle: saline
  T/C: 87 % of control

## C/C(=C1/c2ccccc2-c2n[nH]c(C)c21)S(=O)(=O)O
[14]
  T/C: 95 % of control
[8]
  T/C: 94 % of control
[15]
  T/C: 88 % of control
[9]
  T/C: 105 % of control
[16]
  T/C: 95 % of control
[10]
  T/C: 91 % of control

## C1CCN(CCC2CCNCC2)CC1
[1]
  T/C: 97 % of control
[2]
  T/C: 97 % of control
[4]
  T/C: 99 % of control and 100 % of control

## CCOC(=O)C(OCc1ccccc1)(C(=O)N1CCCCCC1=O)C(C)C (stereo not given)
[14]
  T/C: 90 % of control
[15]
  T/C: 90 % of control
[16]
  T/C: 100 % of control
